Patent US20230270692A1, “COMPOUNDS FOR CHRONIC DISORDERS” (Pillai Universal LLC, priority 2020, published 2023)
Converted amounts (≈) assume the structure as drawn.

Legend:
SARS-CoV-2 [1] = experiment: microbe, parasite or virus in culture; format: cell-based
in vitro = details: African green monkey
[2] = Reduction of hydroxychloroquine side effects; details: treatment of COVID-19
From the text: Coronavirus disease (COVID-19) is an infectious disease caused by virus SARS-CoV-2. The disease causes respiratory illness with symptoms such as a cough, fever, and in more severe cases, difficulty breathing. At present, one drug that may be effective in treating COVID-19 is hydroxychloroquine. However the drug hydroxychloroquine causes serious side effects including cardiovascular diseases, eye damage, mild or severe bronchospasm, and also affects mental health. The effect of Compound I of the present invention in reducing the side effects associated with hydroxychloroquine was studied according to methods known in the art.

[3] = tested on: Pancreatic adenocarcinoma cells (PANC); experiment: MTT cell viability of pancreatic cancer cells; format: cell-based, Human
Method: The synthesized compounds of Formula 1-4 were evaluated for cell proliferation, apoptosis, cell cycle arrest, the generation of reactive oxygen species and calcium were measured using MTT assay and flow cytometry, respectively. The expression of apoptosis- and proliferation-related proteins was determined by western blotting. The effect of molecules on apoptosis-related mRNA expression in cancer cells was detected by RT-PCR.
Changes in cell morphology were detected by the presence of cell membrane blebbing, chromatin condensation, and formation of apoptotic bodies (FIG. 10A).

[4] = 28-day oral sub-chronic toxicity (OECD 408); format: in vivo
Method: […] […] Rats in control groups were administrated orally with the same volume of distilled water (vehicle). During the experimental period, the body weights of all groups were measured once a week. Animals were also visually observed for mortality, changes in behavioral patterns, changes in physical appearance, and symptoms of illness. […] Blood samples were collected for the measurement of hematological (EDTA-2K coated tubes) and biochemical (dry tubes) parameters. After euthanasia, the rats were sacrificed and organs were removed for necropsy, organ weight measurement, and histopathological examination.
Urinalysis: On the last week of the treatment period, a urine test was conducted in all rat groups. Fresh urine was collected overnight from all animals, to determine specific gravity, pH, levels of leukocytes, nitrites, protein, glucose, ketones, blood, urobilinogen, and bilirubin. Urine samples were analyzed using an automatic urine analyzer and test strips.
Hematology and serum biochemistry: For the hematological investigation, all animals fasted overnight but were allowed access to water ad libitum. The rats were then anesthetized, and blood samples were collected from the abdominal aorta. Whole blood was collected in EDTA tubes (containing potassium salt of ethylenediamine-tetracetic acid) and processed immediately for hematological analysis. The parameters measured were red blood cell count (RBC), hematocrit (HCT), hemoglobin (HGB), mean corpuscular volume (MCV), mean corpuscular hemoglobin concentration (MCHC), mean corpuscular hemoglobin (MCH), white blood cell count (WBC), neutrophils (NEU), eosinophils (EOS), basophils (BASO), lymphocytes (LYM), and monocytes (MONO). The hematological analysis was performed using an automatic hematological analyzer. For the measurement of biochemical parameters, dry tubes containing collected blood were centrifuged at 3000 rpm at 5° C. for 15 min to obtain the serum. Serum samples were analyzed using an automated biochemistry analyzer. The clinical biochemistry parameters included, total serum protein (TP), albumin (ALB), total bilirubin (T-BIL), alkaline phosphatase (ALP), alanine aminotransferase (ALT), aspartate aminotransferase (AST), uric acid (URIC), urea (UREA), creatinine (CREA), low-density lipoprotein-cholesterol (LDL-C), high-density lipoprotein-cholesterol (HDL-C), total cholesterol (TC), triglycerides (TG), and glucose (GLU). Serum electrolytes such as calcium (Ca2+), sodium (Nat), potassium (K^+), and chloride (CF) were also determined.
Necropsy and organ weight: All groups of rats were subjected to gross necropsy, which included the examination of the thoracic organs, external surface, and all of the internal organs. Vital organs were carefully examined macroscopically for any type of abnormalities. Thereafter, various organs, including the heart, liver, kidneys, stomach, lung, spleen, adrenals, thymus, epididymis, testes, uterus, and ovaries were surgically removed, cleaned with ice-cold saline solution, placed on absorbent papers, and then weighed (absolute organ weight in grams). The relative organ weight (ROW) of each animal was then calculated as follows: ROW=[Absolute organ weight (g)÷Bodyweight of rat on sacrifice day (g)]×100.
Histopathology: The major organs (lung, heart, liver, kidney) and reproductive organs (testis and ovary) were removed for histopathological examinations. After weight measurement, the organs were quickly fixed in 10% buffered formalin (pH 7.4). Following fixation, tissue specimens were dehydrated in a graded series of ethanol (70-100%), cleared in toluene, and finally enclosed in paraffin. Thereafter, 5-μm thin sections were prepared using a microtome (Leica) and stained with Haematoxylin and Eosin (H & E) prior to microscopic examination.

SARS-CoV-2 [5] = experiment: Antiviral activity against SARS-CoV-2 in Calu-3 cells; format: cell-based

COc1cc(/C=C/C(=O)/C=C/C=C/c2cc(OC)c(O)c(OC)c2)cc(OC)c1 [Compound I]
reduction in viral RNA in supernatant and cell pellets (SARS-CoV-2 [1]; 1 μM, at 48 h, compared to control samples): 99% | viral RNA in supernatant and cell pellets (SARS-CoV-2 [1]; 11 μM (figure legend)): reduction in viral RNA | IC50 (SARS-CoV-2 [1]; Severe acute respiratory syndrome coronavirus 2, Vero cells, MOI 0.1, read-out: IC50 (inhibition of virus yield)): 1000 nM | viral load measured by nucleoprotein expression (SARS-CoV-2 [1]; Vero cells, 48 h p.i., immunofluorescence): substantially reduced | reduction in cell-associated viral RNA (SARS-CoV-2 [1]; at 24 h): 99% | reduction in viral RNA present in the supernatant (SARS-CoV-2 [1]; at 24 h, compared to vehicle DMSO): 100% | viral material (SARS-CoV-2 [1]; by 36 h): effective loss of essentially all viral material | CC50 (in vitro): > 15000 nM | effect on hydroxychloroquine side effects [2]: assists in potentiating hydroxychloroquine by reducing the side effects | cell viability ([3]; 24 and 48 h, 1-100 μg/mL): decreased significantly in time- and dose-dependent manners | cytotoxicity at 10 µg/mL ([3]; Homo sapiens, Pancreatic cancer cell, read-out: decrease in viable cells): ~65.5% | IC50 ([3]; Homo sapiens, Pancreatic cancer cell, PANC cells, after 24 hours of exposure): 5.74 ± 0.02 µg/mL (≈ 14.5 µM) | plasma levels of AST, ALT, ALP activities ([4]; 200, 500, 1000 and 2000 mg/kg, both sexes): insignificant changes | food and water intakes ([4]; 28 d, P>0.05 vs control): no significant changes | body weight ([4]; acute and subacute toxicity groups): did not elicit any deleterious effect on body weight | level of creatinine, electrolytes, urea or uric acid ([4]; all doses, both sexes): no significant difference | WBC count and subtypes ([4]; any of the doses): did not cause any significant changes | hematological parameters (WBC, RBC, PCV, hemoglobin) ([4]; compared to the control group): not significantly altered | histopathology: liver ([4]; female rats): almost normal cellular architecture with normal hepataocytes | Relative organ weight (ROW) ([4]; liver, brain, kidney, heart, spleen): did not elicit any adverse effects to the vital organs | histopathology: heart ([4]; male and female rats): appeared normal | histopathology: kidney ([4]; male and female rats): almost normal size and shape of glomeruli, tubules, intestinum and blood vesicles | histopathology: lungs ([4]; male and female rats): no lymphocytic infiltrations were observed | histopathology: pancreas ([4]; male and female rats): almost no abnormalities were observed | histopathology: stomach ([4]; male and female rats): normal cellular architecture | histopathology: liver ([4]; male rats): normal hepatocytes along with normal portal triads, sinusoidal spaces and central venous system | histopathology: reproductive organs (testis, ovary) ([4]; rat, in vivo): normal pathology | levels of total protein, albumin, conjugated bilirubin and bilirubin ([4]; rat, in vivo): no significant difference | treatment related death ([4]; subacute, 28-day, both sexes): no treatment related death was observed | inhibition of intracellular SARS-CoV-2 RNA levels (SARS-CoV-2 [5]; Calu-3, 24 h p.i., RT-PCR): more than 95 % of control | IC50 (SARS-CoV-2 [5]; Severe acute respiratory syndrome coronavirus 2, Calu-3, read-out: average half-maximum effective concentration (IC50)): 1500 nM | IC50 (SARS-CoV-2 [5]; Severe acute respiratory syndrome coronavirus 2, Calu-3, read-out: calculated IC50 (viral genomic RNA in supernatants, qRT-PCR)): 5000 nM | IC50 (SARS-CoV-2 [5]; Severe acute respiratory syndrome coronavirus 2, Calu-3 cultures, 0.1-5 μM, read-out: average IC50 (reduction in replication)): 10 nM | IC50 (SARS-CoV-2 [5]; Severe acute respiratory syndrome coronavirus 2, calu-3 cell line, replication, read-out: IC 50): 10000 nM | virus titer of treated cells (SARS-CoV-2 [5]; calu-3, 10 μM Compound I treated cells): ≤ 102 TCID50/ml
